≈ marks a conversion by molar mass, not a printed value. Where two headings read alike, the source gives them in different places.
Tested on: Neisseria gonorrhoeae, GC525 (NG-2888)
Test: in-vitro antibacterial activity, microbroth dilution MIC susceptibility testing
Assay type: cell-based
Set-up: unit: ug/mL
Conditions: microbroth dilution in gonococcal broth, 20-24 hours at 35 C, lowest concentration preventing visible growth
In short: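 Broth microdilution in gonococcal broth, inoculum ~5×10^5 cfu/mL, 20-24 h at 35 C in humidified CO2; compounds from 2 mg/mL DMSO stocks over 64-0.06 and 1-0.001 ug/mL two-fold series. MIC is the lowest concentration preventing visible growth, read visually; duplicates differing one well give the lower value, two wells the middle value.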

[1] = Neisseria gonorrhoeae, read-out: MIC

Row | SMILES | MIC [1] [µg/mL] | MIC [µg/mL]
1 | CCNC(=O)Nc1nc2cc(-c3cccnc3)cc(C(=O)NCc3cccnc3)n2n1 [Example 91, 2-(3-Ethyl-ureido)-7-pyridin-3-yl-[1,2,4]triazolo[1,5-a]pyridine-5-carboxylic acid(pyridin-3-ylmethyl)-amide] | 16 (≈ 38.4 µM) | 
2 | CCNC(=O)Nc1nc2cc(-c3cccnc3)cc(C(=O)N(Cc3ccncc3)CC3CCCO3)n2n1 (centres unmarked) [Example 92, 2-(3-Ethyl-ureido)-7-pyridin-3-yl-[1,2,4]triazolo[1,5-a]pyridine-5-carboxylic acidpyridin-4-ylmethyl-(tetrahydro-furan-2-ylmethyl)-amide] | 8 (≈ 16 µM) | 
3 | CCNC(=O)Nc1nc2cc(-c3cccnc3)cc(C(=O)NC(C)c3ccncc3)n2n1 (centres unmarked) [Example 93, 2-(3-Ethyl-ureido)-7-pyridin-3-yl-[1,2,4]triazolo[1,5-a]pyridine-5-carboxylic acid (1-pyridin-4-yl-ethyl)-amide] | 2 (≈ 4.65 µM) | 
4 | CCNC(=O)Nc1nc2cc(-c3ccncc3Cl)cc(C(=O)NCC)n2n1 [Example 95, 7-(3-Chloro-pyridin-4-yl)-2-(3-ethyl-ureido)-[1,2,4]triazolo[1,5-a]pyridine-5-carboxylic acid ethylamide] | 32 (≈ 82.5 µM) | 
5 | CCNC(=O)Nc1nc2cc(-c3ccc(OC)nc3)cc(C(=O)NCC)n2n1 [Example 96, 2-(3-Ethyl-ureido)-7-(6-methoxy-pyridin-3-yl)-[1,2,4]triazolo[1,5-a]pyridine-5-carboxylic acidethylamide] | 2 (≈ 5.22 µM) | 
6 | CCNC(=O)Nc1nc2cc(-c3cnc(OC)nc3OC)cc(C(=O)NCC)n2n1 [Example 98, 7-(2,4-Dimethoxy-pyrimidin-5-yl)-2-(3-ethyl-ureido)-[1,2,4]triazolo[1,5-a]pyridine-5-carboxylic acid ethylamide] | 2 (≈ 4.83 µM) | 
7 | CCNC(=O)Nc1nc2cc(-c3cccc(C(F)(F)F)c3)cc(C(=O)NCC)n2n1 [Example 99, 2-(3-Ethyl-ureido)-7-(3-trifluoromethyl-phenyl)-[1,2,4]triazolo[1,5-a]pyridine-5-carboxylic acid ethylamide] | 8 (≈ 19 µM) | 

The next lines start with the values.

Row | MIC [1] [µg/mL] | MIC [µg/mL] | SMILES
8 | > 64 |  | CCNC(=O)Nc1nc2cc(-c3ccc(OC)cc3OC)cc(C(=O)NCC)n2n1 [Example 102, 7-(2,4-Dimethoxy-phenyl)-2-(3-ethyl-ureido)-[1,2,4]triazolo[1,5-a]pyridine-5-carboxylic acid ethylamide]
9 | > 64 |  | CCNC(=O)Nc1nc2cc(-c3cc(C)c(OC)c(C)c3)cc(C(=O)NCC)n2n1 [Example 103, 2-(3-Ethyl-ureido)-7-(4-methoxy-3,5-dimethyl-phenyl)-[1,2,4]triazolo[1,5-a]pyridine-5-carboxylic acid ethylamide]
10 |  | 64.0 (≈ 168 µM) | CCNC(=O)Nc1nc2cc(-c3cccnc3)cc(C(=O)N(CC)CC)n2n1 [Example 104, 2-(3-Ethyl-ureido)-7-pyridin-3-yl-[1,2,4]triazolo[1,5-a]pyridine-5-carboxylic acid diethylamide]
11 | 16 (≈ 40.4 µM) |  | CCNC(=O)Nc1nc2cc(-c3cccnc3)cc(C(=O)NCCN(C)C)n2n1 [Example 105, 2-(3-Ethyl-ureido)-7-pyridin-3-yl-[1,2,4]triazolo[1,5-a]pyridine-5-carboxylic acid (2-dimethylamino-ethyl)-amide]
12 | > 64 |  | CCNC(=O)Nc1nc2cc(-c3cccnc3)cc(C(=O)NCc3ccc(OC)c(OC)c3)n2n1 [Example 106, 2-(3-Ethyl-ureido)-7-pyridin-3-yl-[1,2,4]triazolo[1,5-a]pyridine-5-carboxylic acid 3,4-dimethoxy-benzylamide]
13 | > 64 |  | CCNC(=O)Nc1nc2cc(-c3cccnc3)cc(C(=O)NCCCN)n2n1 [Example 107, 2-(3-Ethyl-ureido)-7-pyridin-3-yl-[1,2,4]triazolo[1,5-a]pyridine-5-carboxylic acid (3-amino-propyl)-amide]
14 | 2 (≈ 5.68 µM) |  | CCCC(=O)c1cc(-c2cccnc2)cc2nc(NC(=O)NCC)nn12 [Example 108, 1-(5-Butyryl-7-pyridin-3-yl-[1,2,4]triazolo[1,5-a]pyridine-2-yl)-3-ethyl-urea]
